Laboratory results as given in US9486440B2, “Uses of indole-ketones or indolidones as neuro-protective drugs” (UNIVERSITY OF MACAU, priority 2011, dated 2016).
Entries after “also recorded” stand apart in the source; their conditions may differ. Values belong to the molecule of their own block, whether it stands above or below them.

Experiments:
CGNs [1] = conditions: VEGF 10-300 ng/ml; cited from earlier work
[2] = daily oral administration; cited from earlier work
CGNs [3] = test: Hoechst 33342 staining of CGNs after low potassium; assay type: cell-based; conditions: 1.5 μM, 24 hours
Description: (§1) Cell viability was measured by MTT assay at 24 hours after low potassium challenge. […] After 24 hours of low potassium challenge, CGNs were assayed with an FDA/PI double staining. […] After 24 hours of low potassium challenge, CGNs were assayed with Hoechst staining. The number of apoptotic nuclei with condensed chromatin were counted from representative Hoechst staining photomicrographs and represented as a percentage of the total number of nuclei counted. […] Intracellular NO level was measured using DAF-FM diacetate as a probe at 4 hour after low potassium challenge. Data, expressed as percentage of control (CGNs were cultured in high potassium medium), were the mean±SEM of three separate experiments; *p<0.05 and **p<0.01 versus low potassium group in (A) and (D) or versus control in (C); ^##p<0.01 versus low potassium group in (C) (Turkey's test).
(§2) The neurons were examined by FDA/PI double staining.

[4] = cited from earlier work
intracellular NO [5] = test: Intracellular NO in SH-SY5Y cells after MPP+; assay type: cell-based, human; conditions: 0.3 μM 2 hours, then 1 mM MPP+ 24 hours
Description: Cell viability was measured by the MTT assay at 24 hours after MPP^+ challenge. […] Intracellular NO level was measured using DAF-FM diacetate as a probe at 24 hour after MPP^+ challenge. Data, expressed as percentage of control, were the mean±SEM of three separate experiments; *p<0.05 and **p<0.01 versus MPP^+ group (ANOVA and Dunnett's test).
DAF-FM diacetate was also used to evaluate the intracellular NO level in this model.

eNOS = eNOS (Homo sapiens, UniProt P29474); test: In vitro NOS activity assay of Example 3, eNOS; assay type: biochemical; conditions: 100 μM; data not shown
intracellular NO [6] = test: Intracellular NO in CGNs after low potassium; assay type: cell-based; conditions: 1.5 μM, 4 hour after low potassium challenge
Description: as §1

CGNs [7] = test: FDA/PI double staining of CGNs after low potassium; assay type: cell-based; conditions: 1.5 μM, 24 hours
Description: as §1, §2

rat cerebellum nNOS = molecular target: T1, rat cerebellum nNOS (Rattus norvegicus, UniProt P29476); test: In vitro nNOS activity assay, rat cerebellum nNOS; assay type: biochemical
T1 construct: purchased Calbiochem
Description: Rat cerebellum nNOS was from Calbiochem. NOS activity was determined by monitoring the conversion of L-[3H]arginine to [3H]citrulline following the instructions provided by the kit (Calbiochem). The reaction mixture contained a final volume of 40 μl with 25 mM Tris-Cl at pH 7.4, 3 μM tetrahydrobiopterin, 1 μM FAD, 1 μM FMN, 1 mM NADPH, 0.6 mM CaCl2, 0.1 μM calmodulin, 2.5 μg of pure NOS enzyme, 5 μl L-[3H]arginine (Perkin Elmer, Waltham, Mass., USA), and different concentrations of the tested reagents. The reaction mixture was incubated at 22° C. for 45 min. The reaction was quenched by adding 400 μl of stopping buffer (50 mM HEPES, pH 5.5, and 5 mM EDTA). Unreacted L-[3H]arginine was then trapped by 100 μl of equilibrated resin in a spin cup followed by centrifugation at 13,200 rpm for 30 s.

SH-SY5Y cells [8] = conditions: sustained (3 days) treatment, >1 μM; cited from earlier work
[9] = tested on: nNOS knockdown SH-SY5Y cells; test: MPP+ in ShRNA-mediated nNOS knockdown SH-SY5Y cells; assay type: cell-based, human; conditions: 0.3 μM 2 hours, then 1 mM MPP+ 24 hours
Description: (A) SH-SY5Y cells were transfected with pG418-GFP plasmid (vector), pG418-GFP plasmid encoding nNOS ShRNA (ShnNOS) and pG418-GFP plasmid encoding negative control ShRNA (ShNC). The level of nNOS and β-actin in the cell lysates were analyzed by Western blotting assay by using specific antibodies. […] Cell viability was measured at 24 hours after MPP^+ challenge by MTT assays. Data were the mean±SEM of three separate experiments; **p<0.01 versus control; ^##p<0.01 versus MPP^+ group; ^&p<0.05 versus MPP^+ vector group (Turkey's test).

CGNs [10] = test: Low potassium-induced cell death in CGNs, MTT assay; assay type: cell-based; conditions: 5 mM KCl BME medium, 24 hours; sunitinib 0.1-2 μM
Description: as §1
It was previously reported that low potassium could induce typical apoptosis in cerebellar granule neurons (CGNs) (Fu et al., 2008). […] Cell viability was measured with an MTT assay 24 hours after the low potassium treatment.

CGNs [11] = test: MPP+-induced neurotoxicity in CGNs, MTT and LDH assays; assay type: cell-based, rat
Description: (§3) All animal experiments were conducted according to the ethical guidelines of ICMS, Macau University and the Animal Care Facility, The Hong Kong Polytechnic University. Rat CGNs were prepared from 8-day-old Sprague-Dawley rats (The Animal Care Facility, The Hong Kong Polytechnic University) as described by Li et al., 2005. Briefly, neurons were seeded at a density of 2.7×10^5 cells/ml in basal modified Eagle's medium (Invitrogen) containing 10% fetal bovine serum, 25 mM KCl, 2 mM glutamine, and penicillin (100 units/ml)/streptomycin (100 μg/ml). Cytosine arabinoside (10 μM) was added to the culture medium 24 hour after plating to limit the growth of non-neuronal cells. With the use of this protocol, more than 95% of the cultured cells were granule neurons.
(§4) The percentage of surviving neurons in the presence of SU4312 and/or MPP^+ was estimated by determining the activity of mitochondrial dehydrogenases with 3(4,5-dimethylthiazol-2-yl)-2.5-diphenyltetrazolium bromide (MTT) assay (Li et al., 2007). The assay was performed according to the specifications of the manufacturer (MTT kit I; Roche Applied Science). Briefly, the neurons were cultured in 96-well plates, 10 μl of 5 mg/ml MTT labeling reagent was added to each well containing cells in 100 μl of medium, and the plates were incubated for 4 hours in a humidified incubator at 37° C. After the incubation, 100 μl of the solvating solution (0.01 N HCl in 10% SDS solution) was added to each well for 16-20 hours. Absorbance of the samples was measured at a wavelength of 570 nm with 655 nm as a reference wavelength. Unless otherwise indicated, the extent of MTT conversion in cells exposed to MPP^+ is expressed as a percentage of the control.
Cytotoxicity was determined by measuring the release of lactate dehydrogenase (LDH). Briefly, cells were precipitated by centrifugation at 500 g for 5 min at room temperature, 50 μl of the supernatants was transferred into new wells, and LDH was determined using the in vitro toxicology assay kit (Roche). The absorbance of the samples was measured at a wavelength of 490 nm with 655 nm as a reference wavelength.
as §3, with “Rat” for “All animal experiments were conducted according to the ethical guidelines of ICMS, Macau University and the Animal Care Facility, The Hong Kong Polytechnic University. Rat”, “hours” for “hour”
as §4, with “The” for “The percentage of surviving neurons in the presence of SU4312 and/or MPP^+ was estimated by determining the activity of mitochondrial dehydrogenases with 3(4,5-dimethylthiazol-2-yl)-2.5-diphenyltetrazolium bromide (MTT) assay (Li et al., 2007). The”, “incubated at 37° C.” for “incubated”, “incubator.” for “incubator at 37° C.”, “The absorbance” for “Absorbance”

SH-SY5Y cells [12] = test: MPP+-induced neurotoxicity in SH-SY5Y cells, MTT assay; assay type: cell-based, human; conditions: for MPP+-induced neuronal death in SH-SY5Y cells (MTT): pre-treatment 2 hours, then 1 mM MPP+ for 24 hours
Description: The human neuroblastoma SH-SY5Y cells were obtained from ATCC. The cells were maintained in supplemented Dulbecco's modified eagle medium (DMEM), 10% fetal bovine serum, 100 U/ml penicillin, and 100 μg/ml streptomycin in a 37° C., 5% CO2 incubator. PC12 pheochromocytoma cells were also obtained from ATCC. The cells were cultured in medium that consisted of DMEM, 10% heat-inactivated horse serum, 5% fetal bovine serum, 100 U/ml penicillin, and 100 μg/ml streptomycin in a 37° C., 5% CO2 incubator. All experiments were carried out 48 hours after the cells were seeded. […] The assay was performed according to the specifications of the manufacturer (MTT kit I; Roche Applied Science). […] After the incubation, 100 μl of the solvating solution (0.01 N HCl in 10% SDS solution) was added to each well for 16-20 hours. Absorbance of the samples was measured at a wavelength of 570 nm with 655 nm as a reference wavelength. Unless otherwise indicated, the extent of MTT conversion in cells exposed to MPP^+ is expressed as a percentage of the control.

iNOS [13] = molecular target: T2, iNOS (Homo sapiens, UniProt P35228); test: In vitro NOS activity assay of Example 3, iNOS; assay type: biochemical; conditions: 100 μM; data not shown
iNOS [14] = molecular target: T2, iNOS; conditions: cited from earlier work
intracellular NO [15] = test: Intracellular NO in CGNs after MPP+ (DAF-FM diacetate); assay type: cell-based, rat; conditions: pre-treatment 2 hours, 35 μM MPP+, 24 hours; SU4312 3-30 μM, 7-NI 3-10 μM
Description: (§5) Intracellular NO was monitored with 4-Amino-5-methylamino-2′,7′-difluorofluorescein (DAF-FM) diacetate, a pH-insensitive fluorescent dye that emits increased fluorescence after reaction with an active intermediate of NO formed during the spontaneous oxidation of NO to NO2 (Sheng et al., 2005). DAF-FM solution was added to the culture medium (final concentration: 5 μM). After 30 min in a CO2 incubator, cultures were washed twice with PBS and incubated for an additional 30 min to allow complete de-esterification of the intracellular diacetate for stronger fluorescence. The DAF-FM fluorescence in CGNs was quantified by a multi-detection microplate reader using excitation and emission wavelengths of 495 nm and 515 nm, respectively. The measured fluorescence values were expressed as a percentage of the fluorescence in the control cells.
as §5, with “(4-amino-5-methylamino-2′,7′-difluorofluorescein) DAF-FM” for “4-Amino-5-methylamino-2′,7′-difluorofluorescein (DAF-FM)”, “After incubation for” for “After”, “another” for “an additional”, “strong” for “stronger”

nNOS = nNOS (Homo sapiens, UniProt P29475); conditions: cited from earlier work

Molecule: VEGF
MPP+-induced neurotoxicity in CGNs (earlier study) (CGNs [1]): protected neurons against MPP^+-induced neurotoxicity

IC50 (rat cerebellum nNOS): 9.6 µM
Molecule: CCN(CC)CCNC(=O)c1c(C)[nH]c(/C=C2\C(=O)Nc3ccc(F)cc32)c1C [Sunitinib, N-(2-diethylaminoethyl)-5-[(Z)-(5-fluoro-2-oxo-1H-indol-3-ylidene)methyl]-2,4-dimethyl-1H-pyrrole-3-carboxamide]
human plasma steady-state level [2]: 50 to 100 ng/mL | neuronal apoptosis induced by low potassium (Hoechst 33342) (CGNs [3]): significantly reversed neuronal apoptosis induced by low potassium | sunitinib still accumulated in the brain ([4]; 60 min following administration): 25% | sunitinib retained in the brain ([4]; 6 hour after oral administration): 60 ng/mL | MPP+-triggered elevation of intracellular NO level in SH-SY5Y cells (intracellular NO [5]): attenuated MPP^+-triggered elevation of intracellular NO level | inhibitory activity against eNOS (eNOS): showed no inhibitory activity against iNOS or eNOS | low potassium-stimulated NO production (intracellular NO [6]): antagonized the stimulatory effect of low potassium on the NO production | loss of neurons and morphological alteration induced by low potassium (FDA/PI) (CGNs [7]): significantly blocked the loss of neurons and reversed the morphological alteration | proliferation of SH-SY5Y cells (previous studies) (SH-SY5Y cells [8]): could reduce the proliferation of SH-SY5Y cells | MPP+-induced cell death in nNOS knockdown SH-SY5Y cells (MTT) [9]: did not significantly inhibit MPP^+-induced cell death | low potassium-induced cell death (MTT) (CGNs [10]): unexpectedly prevented low potassium-induced cell death in CGNs in a concentration-dependent manner | cell proliferative or cytotoxic effects of the drug alone (CGNs [11]): did not show cell proliferative or cytotoxic effects | cell proliferative or cytotoxic effects of the drug alone, SH-SY5Y cells (SH-SY5Y cells [12]): did not show cell proliferative or cytotoxic effects | toxicity to SH-SY5Y cells at higher concentration (SH-SY5Y cells [12]; higher concentration (sunitinib 1 μM), data not shown): at higher concentration (1 μM) showed toxicity to SH-SY5Y cells | MPP+-induced neuronal death in SH-SY5Y cells (MTT) (SH-SY5Y cells [12]): prevented MPP^+-induced neuronal death at 0.1-0.3 μM | inhibitory activity against iNOS (iNOS [13]): showed no inhibitory activity against iNOS or eNOS

Molecule: O=[N+]([O-])c1cccc2cn[nH]c12 [7-nitroindazole]
IC50 (iNOS [14]): 20 µM | MPP+-induced elevation of intracellular NO level (intracellular NO [15]): inhibited neuronal death and elevated level of intracellular NO induced by MPP^+ | IC50 (nNOS): 700 nM | MPP+-induced cell death (cell viability, MTT and LDH assays) (CGNs [11]; pre-treatment 2 hours, then 35 μM MPP+ for 24 hours): inhibited neuronal death; also recorded: protected against neuronal apoptosis | MPP+-induced neuronal death in SH-SY5Y cells (MTT) (SH-SY5Y cells [12]): at 5-10 μM prevented MPP^+-induced neuronal death
